What was measured:
[1] = system: CT26 cells injected into the liver; experiment: Liver metastatic CRC model; type: in vivo, BALB/c mice
Experimental: BALB/c mice received an intra-hepatic inoculation of 5×10^5 CT26 cells (day 0). The mice were distributed in experimental groups and treated with saline (control group, n=6); Antartina (5 mg/kg i.p., n=8 day 8). At day 18, animals were sacrificed and the volume of metastatic nodules was measured with caliper.

[2] = system: tumor-infiltrating CD4+ and CD8+ T cells; experiment: Flow cytometry of tumor-infiltrating T lymphocytes; type: in vivo, BALB/c mice; settings: day 18, p<0.05
Experimental: previously, single cell suspensions were obtained by mechanical disruption of tumor samples treated with 0.5 mg/ml Collagenase I at 37° C. for 45 min and washed with PBS 1% bovine serum albumin. Then, tumor cells were stained with PECy5-anti-CD4 (BD Biosciences) and AlexaFluor488-anti-CD8 (BD Biosciences) and their respective isotypes and subjected to flow cytometry (FACSAria, BD). Data were analyzed using Cyflogic v. 1.2.1 software.

CT26 cells [3] = experiment: Cell viability assay (MTS, 490 nm); type: cell-based, mouse
Experimental: Mouse CT26 tumor cell line, an undifferentiated murine colorectal carcinoma (CRC) cell line established from a N-nitroso-N-methylurethan-induced transplantable tumor in BALB/c (H-2d) mice and BNL hepatoma cell line was kindly provided by Prof. Jesús Prieto, University of Navarra, Spain. CT26 and BNL were cultured in complete DMEM (2 mM glutamine, 100 U/ml penicillin, […] streptomycin) and 10% heat-inactivated fetal bovine serum (FBS) and incubated at 37° C. in a 5% CO2 humidified atmosphere.
Antartina was dissolved in 0.1% DMSO and sterile water an injected intraperitoneally (i.p.) at the doses indicated or used for in vitro assays at different concentrations (0.1; 1 and 10 µg/ml). Fluorouracil Rontag® (5-Fu) 500 mg was diluted in saline solution at indicated concentrations (0.1; 1 and 10 µg/ml).
CT26 cells were plated onto 96-well plates at a density of 5×10^3 cells/well and cultured with DMEM or Antartina at different doses (0.1-1-10 […]at different doses (0.1-1-10 DMEM or y of 5×10t indicated concentrations (0.1; 1 and 10 nd 10 ions (0.1; 1 and 10 mental for 4 hour after which the absorbance of each well was read at 490 nm. All assays were performed in quadruplicate, and each assay was repeated twice.

Toxicity studies = type: in vivo, BALB/c mice
Experimental: BALB/c mice untreated or treated with Antartina (5 mg/kg and 50 mg/kg) were used to assess its toxicology profile. […] Aspartate aminotransferase (AST) and alanine aminotransferase (ALT) levels were measured by standard colorimetric methods. Also, healthy mice or mice receiving Antartina were sacrificed to collect liver, spleen, and kidney samples. Paraffin embedded tissues were stained with H & E for pathological analysis.

CT26 CRC cells = experiment: Long-term protection study (re-challenge); type: in vivo, BALB/c mice; settings: 3 weeks after complete tumor regression, 5×10^5 cells left flank
Excerpt: to evaluate protective immunity, animals that were free of disease at 3 wk after complete regression of primary tumors (7 week after first tumor inoculation) were challenged with 5×10^5 CT26 cells on the left flank.

hepatocellular carcinoma = experiment: Hepatocellular carcinoma in mice with advanced fibrosis (preliminary, data not shown); type: in vivo
CT26 CRC tumors = experiment: Subcutaneous CRC model; type: in vivo, BALB/c mice; settings: for microscopic examination of tumor sections (H & E): 10 and 15 days after treatment
Experimental: Subcutaneous CRC model: CT26 cells were injected at a dose of 5×10^5 cells subcutaneously (s.c.) into the right flank of BALB/c mice (day 0). Tumors were allowed to reach approximately 90 mm^3 in size before treatment was started. Animals were distributed in different groups and then treated with Antartina or 0.1% DMSO in sterile water intraperitoneal (i.p.) (control group, n=6); Antartina (5 or 50 mg/kg i.p., day 8, n=9). Tumor growth was assessed by caliper measurement.
tumor samples from experimental groups were obtained 10 and 15 days after treatment and fixed in 10% phosphate-buffered formalin. Five-micrometer sections from paraffin-embedded tissues were stained with hematoxylin and eosin (H & E) for histologic examination.

CT26 cells [4] = experiment: Cell cycle analysis (propidium iodide, flow cytometry); type: cell-based, mouse; settings: 48 h and 72 h, Antartina 10 µg/ml
Experimental: 1×10^6 CT26 cells cultured with DMEM or Antartina were collected washed in PBS and fixed in a mixture of ice-cold 70% (v/v) ethanol, FBS and distill water. Fixed cells were centrifuged and stained with propidium iodide (PI) solution (50 μg/ml PI, 180 U/ml RNAse). DNA content was determined using a FACS Accuri 6 laser flow cytometer (Becton Dickinson).

BNL cells = experiment: CTL cytotoxicity assay (LDH release), BNL targets; type: cell-based, mouse; settings: splenocytes of treated mice, in vitro
Experimental: (§1) viable splenocytes from control or treated mice (10×10^6) were stimulated in vitro with mitomycin C-treated CT26 cells (10×10^5 cells/well in 24-well-plates). On day 5, cells were harvested and washed, adjusted to 2×10^6/mL, and added to 96-well-plate (effector cells). To determine specific CTL cytotoxicity activity CT26 and BNL cells were used as target at 2×10^5/mL. After incubation for 4 h at 37° C., plates were centrifuged and cell-free supernatants were obtained. Levels of released LDH were evaluated with the LDH Cytotoxicity Detection Kit (Sigma-Aldrich) following the manufacturer's instructions and expressed as percentage of lysis.

CT26 cells [5] = experiment: CTL cytotoxicity assay (LDH release), CT26 targets; type: cell-based, mouse; settings: splenocytes of treated cured mice, p<0.001
Experimental: as §1

SMILES: COc1cc(-c2cc(=O)c3c(O)cc(O[C@@H]4O[C@H](CO)[C@@H](O)[C@H](O)[C@H]4O)cc3o2)cc(OC)c1O [Antartina, Tricin 7-O-β-D-glucopyranoside]
- treated animals showing a reduction in metastases growth ([1]; 5 mg/kg i.p.): more than 60%
- mean of tumor volume ([1]; 5 mg/kg i.p. from day 8, day 18 after inoculation, control 1508±204): 955±275 mm^3
- survival vs controls ([1]; 5 mg/kg i.p., liver metastatic model, p<0.01): superior
- proportion of tumor-infiltrating CD4+ and CD8+ T cells vs control [2]: increased proportion
- CT26 cell survival (CT26 cells [3]; 48 h, highest concentration, p<0.05): inhibits CT26 cell survival
- cell viability reduced to (CT26 cells [3]; 72 h, 10 µg/ml, p<0.001): ~50%
- cell viability reduced (CT26 cells [3]; 72 h, 1 µg/ml, p<0.05): more than 20%
- H & E stained tissues (liver, spleen, kidney) (Toxicity studies; 5 mg/kg and 50 mg/kg): no signs of toxicity
- body weight gain in both groups (Toxicity studies; 5 and 50 mg/kg): similar
- general health of animals (Toxicity studies; 5 and 50 mg/kg): remained healthy
- tolerability, clinical and biochemical toxicity (AST, ALT) (Toxicity studies; 5 and 50 mg/kg, observed more than 30 days): well tolerated with no evident signs of clinical and biochemical toxicity
- re-challenge of cured animals with CT26 cells (CT26 CRC cells): rejected in all animals
- antitumoral activity in vivo against hepatocellular carcinoma (hepatocellular carcinoma): antitumoral activity
- tumor growth vs saline control (CT26 CRC tumors; 5 mg/kg i.p., from day 8 three times a week, over 30 days): significant inhibition of tumor growth
- survival rate vs controls (CT26 CRC tumors; 5 mg/kg i.p., s.c. CT26 model): significantly increased
- complete tumor regression, percent of mice (CT26 CRC tumors; 50 mg/kg i.p.): more than 30%
- tumor volume (CT26 CRC tumors; 50 mg/kg i.p. from day 8): potent tumor volume reduction
- complete tumor regression, mice of group (CT26 CRC tumors; 50 mg/kg i.p., n=9): 3/9
- animal survival vs saline control (CT26 CRC tumors; 50 mg/kg i.p., p<0.01): significantly increased
- microscopic examination of tumor sections (H & E) (CT26 CRC tumors; 50 mg/kg i.p.): extensive areas of necrosis and marked mononuclear cells infiltration
- microscopic examination of tumor sections (H & E) (CT26 CRC tumors; 50 mg/kg i.p., listed as Antarina): intense mononuclear infiltrate and extensive areas of necrosis
- cell cycle pattern (CT26 cells [4]): arrested at G2/M phase
- cell cycle pattern (CT26 cells [4]; listed as Antarina): halted CT26 cells at the transition from G2 to M-phase
- CTL activity against BNL cells (BNL cells): no CTL activity
- specific CTL activity against CT26 cells (CT26 cells [5]): potent activation of specific cytotoxic T lymphocytes
- specific CTL activity against CT26 cells (CT26 cells [5]; listed as Antarina): potent CTL activity against CT26 cells
